Data from the supplement of paper PMC5579334.

How the values were obtained:
[1] = tested on: YST-1; experiment: relative IC50 (inflection point of fitted dose-response curve, CellTiter-Glo viability, 72 h; top asymptote may be below 50% inhibition); higher = less potent
Summary of the method: (§1)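 MPNST cell lines and primary human Schwann cells (750–1000 cells per well) went into 384-well plates preprinted with each compound at five concentrations in 10-fold steps. Plates were incubated 72 h at 37 °C, 5% CO2. Viability was read as CellTiter-Glo ATP luminescence, scaled between vehicle and positive-control wells, with duplicates averaged where present. Percent inhibition is at the top concentration; drug sensitivity score and relative IC50 (censored at top concentration) come from four-parameter logistic fits.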

[2] = tested on: HS-PSS; experiment: as above
Summary of the method: as §1

[3] = tested on: HS-Sch-2; experiment: as above
Summary of the method: as §1

[4] = tested on: HS-PSS; experiment: relative IC50 (inflection point of fitted dose-response curve, CellTox-Green cytotoxicity, 72 h; top asymptote may be below 50%); higher = less potent
Summary of the method: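 MPNST cell lines and primary human Schwann cells were incubated 72 h at 37 °C in 384-well plates holding five 10-fold compound dilutions. CellTox-Green was added before seeding at a final 1:1000 dilution and reported fluorescence from DNA released by disrupted cells. Signals were scaled to vehicle and positive-control wells, and cultures failing plate quality control were dropped. Drug sensitivity score and relative IC50 come from four-parameter logistic fits, with IC50 censored at the top concentration.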

Row | Compound | relative IC50 [1] [nM] | relative IC50 [2] [nM] | relative IC50 [3] [nM] | relative IC50 [4] [nM]
1 | O=C(O)c1ccc(Nc2ncc3c(n2)-c2ccc(Cl)cc2C(c2c(F)cccc2F)=NC3)cc1 [MLN-8054] | 625 | 1260 | 1110 | 
2 | Cn1cnc2c(F)c(Nc3ccc(Br)cc3F)c(C(=O)NOCCO)cc21 [Binimetinib] | > 1000 | > 1000 |  | > 1000
3 | Cc1ccc2nc(CN(CCN(Cc3nc4ccc(C)cc4[nH]3)Cc3nc4ccc(C)cc4[nH]3)Cc3nc4ccc(C)cc4[nH]3)[nH]c2c1 | 7770 | 7700 | 8240 | 
4 | N#CC(c1ccnc(OCc2ccc(CN3CCOCC3)cc2)n1)c1nc2ccccc2s1 (centres undefined) [Bentamapimod] | 1500 | 1690 | 2690 | 
5 | OC(CC1c2ccccc2-c2cncn21)C1CCCCC1 (centres undefined) [NLG919] |  | > 10000 | > 10000 | > 10000
6 | Cc1cc(Nc2ncc(Cl)c(Nc3ccccc3S(=O)(=O)C(C)C)n2)c(OC(C)C)cc1C1CCNCC1 [Ceritinib] | 359 | 91.3 | 926 | 
7 | COc1ccc(COc2cc3oc(=O)c4cc(C(C)O)ccc4c3cc2OC)cc1 (centres undefined) [Palomid-529] |  | > 10000 | > 10000 | > 10000
8 | CC(C)Oc1ccc(C(=O)N[C@H](CNC(=O)CN(C)C)Cc2ccc(-c3cn4cccc([C@H](C)O)c4n3)cc2)cc1Cl | 75.4 | 757 | 72.3 | 
9 | CC(C)CC(=O)Nc1n[nH]c2c1CN(C(=O)C1CCN(C)CC1)C2(C)C | 859 | 604 | 1290 | 
10 | CCNc1nc(Nc2cc(F)c(C(=O)N3CCOCC3)cc2OC)ncc1C(F)(F)F [GNE-7915] | > 1000 | > 1000 |  | > 1000
11 | COCC(=O)NC/C=C/c1ccc2ncnc(Nc3ccc(Oc4ccc(C)nc4)c(C)c3)c2c1 |  | 1540 | 1250 | > 10000
12 | CCc1cc(Nc2nccc(-c3c(-c4ccc(OC)c(C(=O)Nc5c(F)cccc5F)c4)nc4ccccn34)n2)c(OC)cc1N1CCC(N2CCN(S(C)(=O)=O)CC2)CC1 | 31.2 | > 10000 |  | > 10000
13 | Cn1ncc(Cl)c1-c1cc(C(=O)N[C@H](CN)Cc2ccc(F)c(F)c2)oc1Cl [Uprosertib] |  | > 10000 | > 10000 | > 10000
14 | O=C(Nc1cccc(NC(=O)c2cccc(O)c2O)c1)c1cccc(O)c1O [MST-312] | 3120 | 3370 | 984 | 
15 | Cc1c(NC(=O)OC[C@@H]2COCCN2)cn2ncnc(Nc3ccc4c(cnn4Cc4cccc(F)c4)c3)c12 | 1000 | 2150 | 1990 | 
16 | Cc1cc(-c2nc(-c3ccc(OC(F)(F)F)cc3)no2)nn1Cc1ccnc(N2CCN(C3CC3)CC2)c1 [BAY 87-2243] |  | 0.66 | 0.63 | > 1000
17 | C[C@H]1Oc2cc(cnc2N)-c2c(nn(C)c2C#N)CN(C)C(=O)c2ccc(F)cc21 | > 1000 | 10.7 |  | > 1000
18 | NC(=O)c1cccc2cn(-c3ccc(C4CCCNC4)cc3)nc12 (centres undefined) [Niraparib] | 461 | 1760 | 661 | 
19 | CCOc1cc2ncc(C#N)c(Nc3ccc(F)c(Cl)c3)c2cc1NC(=O)/C=C/CN(C)C [Pelitinib] | 323 | 79.5 | 195 | 
20 | CON(C)C(=O)N1N=C(c2cc(F)ccc2F)S[C@@]1(CCCN)c1ccccc1 [Filanesib] | 2.28 | 4.62 | 2.19 | 
21 | COc1cc2ncnc(Oc3cccc(NC(=O)Nc4cc(C(C)(C)C(F)(F)F)on4)c3)c2cc1OC |  | > 10000 | > 10000 | > 10000
22 | Nc1nc2[nH]cc(CCc3ccc(C(=O)N[C@@H](CCC(=O)O)C(=O)O)cc3)c2c(=O)[nH]1 [Pemetrexed] |  | > 10000 | 64.1 | > 10000
23 | C=CC(=O)N1CCC(Oc2cc3c(Nc4ccc(Cl)c(Cl)c4F)ncnc3cc2OC)CC1 [Poziotinib] |  | > 1000 | > 1000 | > 1000
24 | Cc1c(C(=O)Nc2ccc(N3C[C@@H](C)O[C@@H](C)C3)nc2)cccc1-c1ccc(OC(F)(F)F)cc1 [Sonidegib] | > 10000 | 760 |  | > 10000
25 | N#Cc1c(Oc2ccc(F)c(NC(=O)Cc3cccc(C(F)(F)F)c3)c2)ccc2nc(NC(=O)C3CC3)sc12 [TAK-632] |  | 3980 | 3860 | > 10000

Row | Compound | relative IC50 [1] [nM] | relative IC50 [2] [nM] | relative IC50 [3] [nM] | relative IC50 [4] [nM]
26 | Cc1cnc(-c2ccccc2C(C)C)nc1NCc1ccc(-n2ccnn2)cc1 [ML323] |  | 1670 | 1460 | > 10000
27 | CCc1cc2c(cc1N1CCC(N3CCOCC3)CC1)C(C)(C)c1[nH]c3cc(C#N)ccc3c1C2=O [Alectinib] |  | 34.8 | > 1000 | > 1000
28 | CCN(CC)CCN(Cc1ccc(-c2ccc(C(F)(F)F)cc2)cc1)C(=O)Cn1c(SCc2ccc(F)cc2)nc(=O)c2c1CCC2 [Darapladib] |  | 224 | 192 | 250
29 | COc1cc2nccc(Oc3ccc(NC(=O)NC4CC4)c(Cl)c3)c2cc1C(N)=O [Lenvatinib] |  | > 2500 |  | > 2500
30 | Cc1ccc(NC(=O)c2ccc(CN3CC[C@H](N(C)C)C3)c(C(F)(F)F)c2)cc1Nc1nccc(-c2cncnc2)n1 [Bafetinib] | 259 | > 1000 |  | > 1000
31 | O=c1[nH]c(C2CCCN2)nc2c1oc1ccc(Cl)cc12 (centres undefined) | 1220 | 1500 |  | 
32 | CNC(=O)c1cc(COc2nnc(Nc3ccc(Cl)cc3)c3ccoc23)ccn1 [Telatinib] |  | > 10000 | > 10000 | > 10000
33 | CC(C)(C)C[C@@H]1N[C@@H](C(=O)N[C@H]2CC[C@H](O)CC2)[C@H](c2cccc(Cl)c2F)[C@]12C(=O)Nc1cc(Cl)ccc12 | 140 | 3280 |  | > 10000
34 | O[C@H]1CC[C@H](Nc2ncc3nc(Nc4c(F)cc(F)cc4F)n([C@H]4CCOC4)c3n2)CC1 [Tanzisertib] |  | > 10000 | > 10000 | > 10000
35 | O=C(O)c1ccc(O)c2ncccc12 [IOX-1] | 36600 | > 100000 |  | > 100000
36 | Cc1cc([C@@H](C)Nc2ccccc2C(=O)O)c2nc(N3CCOCC3)cc(=O)n2c1 [AZD-6482] |  | > 2500 | > 2500 | > 2500
37 | Cc1nc(-c2cn3c(n2)-c2ccc(-c4cnn(C(C)(C)C(N)=O)c4)cc2OCC3)n(C(C)C)n1 [Taselisib] | 24.9 | 425 |  | > 1000
38 | CNC(=O)[C@@H](NC(=O)[C@H](CC(C)C)[C@H](O)C(=O)NO)C(C)(C)C [Marimastat] | > 10000 | > 10000 |  | > 10000
39 | O=C(O)CC1CC(c2ccccc2)=NO1 (centres undefined) [VGX-1027] | > 10000 | > 10000 |  | > 10000
40 | CN(C)C(=O)c1ccc(S(=O)(=O)c2ccc(NC(=O)[C@@](C)(O)C(F)(F)F)c(Cl)c2)cc1 [AZD7545] | > 10000 | 3910 |  | > 10000
41 | c1cn2cc(-c3ccc4cn[nH]c4c3)nc(Nc3ccc(N4CCOCC4)cc3)c2n1 [Entospletinib] |  | > 5000 | > 5000 | > 5000
42 | CCC(C)n1ncn(-c2ccc(N3CCN(c4ccc(OCC5COC(Cn6cncn6)(c6ccc(Cl)cc6Cl)O5)cc4)CC3)cc2)c1=O (centres undefined) [Itraconazole] | 1540 | 904 |  | > 5000
43 | CNc1nc(-c2ccc3c(N)n[nH]c3c2)cc(N2C[C@@H](C(=O)NC3CCCCC3)CC[C@H]2C)n1 | 585 | 3050 |  | > 10000
44 | Cc1cc(C)c(/C=C2\C(=O)Nc3ccccc32)[nH]1 [Semaxanib] |  | > 10000 | > 10000 | 2280
45 | FC(F)(F)c1ccc(CNc2ccc(Cc3c[nH]c4ncc(Cl)cc34)cn2)cn1 [Pexidartinib] |  | 1740 |  | > 10000
46 | Nc1nc(N)c2nc(-c3cccc(O)c3)c(-c3cccc(O)c3)nc2n1 [TG100-115] |  | > 10000 |  | > 10000
47 | NC(=O)Nc1sc(-c2ccc(F)cc2)cc1C(N)=O [TPCA-1] | 4330 | 3980 |  | > 25000
48 | CC1(C)CCC(CN2CCN(c3ccc(C(=O)NS(=O)(=O)c4ccc(NCC5CCOCC5)c([N+](=O)[O-])c4)c(Oc4cnc5[nH]ccc5c4)c3)CC2)=C(c2ccc(Cl)cc2)C1 [Venetoclax] |  | > 1000 | > 1000 | > 1000
49 | CNC(=O)c1c(F)cccc1Nc1nc(Nc2cc3c(cc2OC)CCN3C(=O)CN(C)C)nc2[nH]ccc12 | 73 | 32.1 |  | 
50 | CNC(=O)c1ccc(-c2cnc3ncc(Cc4ccc5ncccc5c4)n3n2)cc1F [NVP-INC280] |  | > 1000 |  | > 1000
